Data on 3 molecules can be found in patent US20260144796A1, “Compounds and Methods for Improving Health” (Acurx Pharmaceuticals, Inc., priority 2022, published 2026).

Converted amounts (≈) assume the structure as drawn. Read-outs that look alike come from different tables or passages of the source. Where only a bound is given, the exact number is not on record here.

In assay [1] the test system is gut microbiome. Description: Germ-free humanized mouse study, 16S rRNA gut microbiome analysis. The format is in vivo. The conditions noted are these: humanized germ-free mice. The source says: Germ-free (GF) mice (six per group) were randomly assigned to IBZ, VAN, FDX, MTZ, or control groups.
An oral gavage of healthy human-derived fecal slurry was given to GF mice. The humanized mice were housed in a sterile biological safety cabinet (BSC) for one week to allow the donor gut microbiome to establish. Humanized mice were then moved to sterile, micro-isolator cages and pellet chow diet was exchanged for a powder chow diet. The humanized mice were then allowed one week to acclimate to the powder chow diet. In addition, a stool sample was obtained prior to the change in diet (baseline 1). At day 14, once the mice acclimated to the powder chow diet, a second baseline stool sample was obtained (baseline 2) and antibiotic treatment was started. The appropriate antibiotics were added to the powder chow diet for 10 days. At day 16, two days after beginning antibiotic treatment, another stool sample was collected (ABX-1). During the 10-day antibiotic treatment, powder chow dishes were refilled each day with fresh chow containing the randomly assigned antibiotic. Stool samples were again collected at day 24 (ABX-2).
To assess antibiotic microbiome effect, 16S rRNA metagenomics was used on stool samples that were collected at day 0 (baseline 1 and baseline 2) and after 2 and […] of treatment with antibiotics. Bulk DNA was extracted from stool samples using the DNeasy® PowerSoil® Kit. The V4 region of the bacterial 16S rRNA gene was sequenced using the Illumina MiSeq and CLC Genomics Workbench. Raw sequencing reads were processed and curated using the mothur (v.1.48.0) software package and the mothur MiSeq SOP was followed as outlined in Schloss, P. D., et al., Introducing mothur: open-source, platform-independent, community supported software for describing and comparing microbial communities. Appl Environ Microbiol, 2009. 75(23): p. 7537-41 (see also, Kozich, J. J., et al., Development of a dual-index sequencing strategy and curation pipeline for analyzing amplicon sequence data on the MiSeq Illumina sequencing platform. Appl Environ Microbiol, 2013. 79(17): p. 5112-20.). All data visualization and statistical analysis were performed using R studio (R Core Team (2023). R: A Language and Environment for Statistical Computing, Vienna, Austria.).

The subject of assay [2] is C. difficile clinical isolates. The following applies: for MIC: Clostridioides difficile, 24 h, agar dilution; for MIC range: across the twelve clinical isolates tested.
Assay [3] relates to C. difficile biofilms (strains R20291, CD 630). As to the kind of experiment: C. difficile in vitro biofilm studies (MIC, MBIC, CFU/mL, Crystal Violet biomass). The conditions noted are these: for MBIC: Minimum Biofilm Inhibitory Concentration; for MIC: Clostridioides difficile. The format is cell-based. The protocol: A basic flow chart outlining the experimental procedure used in these studies may be seen in FIG. 14. Briefly, C. difficile laboratory strain R20291 was grown in Brain heart infusion-supplemented (BHIS) medium. […] Biofilm formation was established via anaerobic incubation of the cultures at 37° C. for 24 hrs. Early biofilm formation was established at 4 hrs, whereas late biofilm formation was established at 24 hrs, 48 hrs, and 72 hrs. Following biofilm formation, the BHIS medium was removed and replaced with fresh media comprising no antibiotic (control), ibezapolstat (IBZ), Fidaxomicin (FDX), or metronidazole (MTZ). The cultures were then anaerobically incubated for 24 hrs or subjected to time course tests. Biofilm biomass was measured using Crystal Violet staining. […] Data was measured and recorded using Cytation 3 calibrated to read at A570. Data was analyzed by comparing percent growth of antibiotic treated cultures with controls.

The subject of assay [4] is gut microbiome. Description: Phase 1 healthy volunteer study, gut microbiome (metagenomics, qPCR). The format is in vivo, human. The conditions noted are these: phase 1 healthy volunteer study; treatment over 10 days; shotgun metagenomic sequencing.
For assay [5], the system named is bacterial infections in the gut. The following applies: treatment of bacterial infections in the gut; cited from earlier work.
Where [6] appears, read: antibiotic in powder chow 10 days.
Setting [7] is: antibiotic in powder chow 10 days, compared to Baseline 2 (D14).
Where [8] appears, read: C. difficile clinical isolate MT 4802.
[9] abbreviates: C. difficile clinical isolate MT 5071.
[10] abbreviates: C. difficile clinical isolate MT 5342.
Where [11] appears, read: C. difficile clinical isolate MT 5364.
Setting [12] is: C. difficile clinical isolate MT 5382.
Setting [13] is: C. difficile clinical isolate MT 5426.
Setting [14] is: C. difficile clinical isolate MT 5493.
Setting [15] is: C. difficile clinical isolate MT 5515.
Setting [16] is: C. difficile clinical isolate MT 5529.
The mark [17] stands for this setting: C. difficile clinical isolate MT 5536.
The mark [18] stands for this setting: C. difficile clinical isolate SH 1132.
Setting [19] is: C. diff. strain R20291, read-out: MIC.

In the case of `CCc1c(Cl)c(O)c(Cl)c(O)c1C(=O)O[C@H]1[C@H](O)[C@H](OC)[C@H](OC/C2=C\C=C\C[C@H](O)/C(C)=C/[C@H](CC)[C@@H](O[C@@H]3OC(C)(C)[C@@H](OC(=O)C(C)C)[C@H](O)[C@@H]3O)/C(C)=C/C(C)=C/C[C@@H]([C@@H](C)O)OC2=O)O[C@@H]1C` [Fidaxomicin, fidaxomicin], the “change of Firmicutes (in words)” value in the assay on gut microbiome [1] (phylum level) was “increased”. Further, in the assay with gut microbiome [1] (phylum level), the “proportional change of Bacteroidetes (in words)” value was “proportional increases”. Also, in the assay with gut microbiome [1] (setting [6]), the “Average Change in Metric ± SD, Bray-Curtis Dissim. to Baseline 1” value was 0.62 ± 0.02. The “Average Change in Metric ± SD, Bray-Curtis Dissim. to Baseline 2” value in the assay on gut microbiome [1] (setting [6]) was determined as 0.39 ± 0.03. For the same molecule, the “Avg. Change in Relative Abundance ± SD, Bacteroidetes” value in the assay on gut microbiome [1] (setting [7]) is 9.9% ± 2.9%. In addition, the “Avg. Change in Relative Abundance ± SD, Proteobacteria” value with gut microbiome [1] (setting [7]) is recorded as 10.2% ± 3%. Moreover, the “Avg. Change in Relative Abundance ± SD, Verrucomicrobia (Akkermansia)” value in the assay with gut microbiome [1] (setting [7]) is recorded as 3.6% ± 2.8%. The MIC turned out to be 0.006 µg/mL (≈ 0.00567 µM) in assay [2] (setting [8]); 1 µg/mL (≈ 0.945 µM) in assay [2] (setting [9]); 1 µg/mL (≈ 0.945 µM) in assay [2] (setting [10]); 1 µg/mL (≈ 0.945 µM) in assay [2] (setting [11]); 1 µg/mL (≈ 0.945 µM) in assay [2] (setting [12]); 0.5 µg/mL (≈ 0.473 µM) in assay [2] (setting [13]). Also, the MIC in assay [2] (setting [14]) worked out at 1 µg/mL (≈ 0.945 µM); in assay [2] (setting [15]) it was 2 µg/mL (≈ 1.89 µM); in assay [2] (setting [16]) it was 0.5 µg/mL (≈ 0.473 µM); in assay [2] (setting [17]), 1 µg/mL (≈ 0.945 µM); in assay [2] (setting [18]) it was 0.5 µg/mL (≈ 0.473 µM); in assay [3] (setting [19]) it was 0.06 µg/mL (≈ 0.0567 µM). This molecule returned an MIC range in assay [2] below 0.03125 to 2 µg/mL. Besides, in assay [3] (C. diff. strain R20291), the MBIC turned out to be 0.125 µg/mL.
As for `Cc1ncc([N+](=O)[O-])n1CCO` [Metronidazole, metronidazole], the “relative abundance of Proteobacteria (in words)” value with gut microbiome [1] (phylum level) was “proportional increases”; in the assay on gut microbiome [1] (phylum level, listed as MTZ) it was “increased”. The “relative abundance of Verrucomicrobiota (in words)” value in the assay with gut microbiome [1] (phylum level) is “increased”. For the same molecule, in the assay with gut microbiome [1] (setting [6]), the “Average Change in Metric ± SD, Bray-Curtis Dissim. to Baseline 1” value is 0.92 ± 0.02. In the assay with gut microbiome [1] (setting [6]), the “Average Change in Metric ± SD, Bray-Curtis Dissim. to Baseline 2” value was 0.92 ± 0.04. Further, the “Avg. Change in Relative Abundance ± SD, Firmicutes” value in the assay with gut microbiome [1] (setting [7]) is reported as 36.5% ± 5.1%. Also, in the assay on gut microbiome [1] (setting [7]), the “Avg. Change in Relative Abundance ± SD, Proteobacteria” value is reported as 15.1% ± 3.8%. For the same molecule, the MIC in assay [2] (setting [8]) worked out at 0.25 µg/mL (≈ 1.46 µM); in assay [2] (setting [9]) it was 1 µg/mL (≈ 5.84 µM); in assay [2] (setting [10]), 2 µg/mL (≈ 11.7 µM); in assay [2] (setting [11]), 2 µg/mL (≈ 11.7 µM); in assay [2] (setting [12]), 2 µg/mL (≈ 11.7 µM); in assay [2] (setting [13]), 4 µg/mL (≈ 23.4 µM). For the same molecule, the MIC came out at 2 µg/mL (≈ 11.7 µM) in assay [2] (setting [14]); 4 µg/mL (≈ 23.4 µM) in assay [2] (setting [15]); 2 µg/mL (≈ 11.7 µM) in assay [2] (setting [16]); 0.25 µg/mL (≈ 1.46 µM) in assay [2] (setting [17]); 1 µg/mL (≈ 5.84 µM) in assay [2] (setting [18]); 0.5 µg/mL (≈ 2.92 µM) in assay [3] (setting [19]). This molecule yielded an MIC range in assay [2] of 0.25 to 8 µg/mL. The MBIC in assay [3] (C. diff. strain R20291) turned out to be 0.5 µg/mL. The “Eagle effect in 24-hour biofilms” value in assay [3] (R20291 or CD 630, at higher concentrations) is listed as “Eagle effect was observed”.
Regarding `CN[C@H](CC(C)C)C(=O)N[C@H]1C(=O)N[C@@H](CC(N)=O)C(=O)N[C@H]2C(=O)N[C@H]3C(=O)N[C@H](C(=O)N[C@H](C(=O)O)c4cc(O)cc(O)c4-c4cc3ccc4O)[C@H](O)c3ccc(c(Cl)c3)Oc3cc2cc(c3O[C@@H]2O[C@H](CO)[C@@H](O)[C@H](O)[C@H]2O[C@H]2C[C@](C)(N)[C@H](O)[C@H](C)O2)Oc2ccc(cc2Cl)[C@H]1O` [Vancomycin, vancomycin], the “relative abundance of Proteobacteria (in words)” value is “proportional increases” in the assay with gut microbiome [1] (phylum level) and “increased” in the assay on gut microbiome [1] (phylum level, listed as VAN). Also, the “relative abundance of Verrucomicrobiota (in words)” value in the assay on gut microbiome [1] (phylum level) is “increased”. Also, in the assay with gut microbiome [1] (setting [6]), the “Average Change in Metric ± SD, Bray-Curtis Dissim. to Baseline 1” value was determined as 0.84 ± 0.02. Also, the “Average Change in Metric ± SD, Bray-Curtis Dissim. to Baseline 2” value in the assay on gut microbiome [1] (setting [6]) is listed as 0.75 ± 0.03. For the same molecule, the “Avg. Change in Relative Abundance ± SD, Proteobacteria” value with gut microbiome [1] (setting [7]) is 37.2% ± 2.8%. Moreover, the MIC in assay [2] (setting [8]) worked out at 1 µg/mL (≈ 0.69 µM); in assay [2] (C. difficile clinical isolate MT 4883), 8 µg/mL (≈ 5.52 µM); in assay [2] (setting [9]) it was 4 µg/mL (≈ 2.76 µM); in assay [2] (setting [10]), 8 µg/mL (≈ 5.52 µM); in assay [2] (setting [11]), 4 µg/mL (≈ 2.76 µM); in assay [2] (setting [12]) it was 1 µg/mL (≈ 0.69 µM). Also, the MIC in assay [2] (setting [13]) was 4 µg/mL (≈ 2.76 µM); in assay [2] (setting [14]), 1 µg/mL (≈ 0.69 µM); in assay [2] (setting [15]), 4 µg/mL (≈ 2.76 µM); in assay [2] (setting [16]), 1 µg/mL (≈ 0.69 µM); in assay [2] (setting [17]) it was 2 µg/mL (≈ 1.38 µM); in assay [2] (setting [18]), 4 µg/mL (≈ 2.76 µM). In assay [3], this molecule returned an MIC of 1 µg/mL (≈ 0.69 µM). Also, the MIC range in assay [2] lay within 1 to 16 µg/mL. The “C. diff growth (CFU/mL) and biomass at sub-MIC compared to control” value in assay [3] (0.4× MIC) is on record as “reduced”. Further, the “growth in early biofilms at supra-MIC” value in assay [3] (40× MIC, after 48 hours of treatment) was “reduced growth”. The MBIC in assay [3] (C. diff. strain R20291) was 1 µg/mL. Further, in the assay with gut microbiome [4], the “microbiome profile of treated subjects” value was “larger proportion of Proteobacteria”. Moreover, the “patients having a recurring infection after treatment is discontinued” value in assay [5] is given as 20-25%.
